Results taken from PubChem BioAssay AID1508591.

details: rat; liver microsomes; pH 7.4; 15.0 min; 1.0 µM

Structure (SMILES) | half-life
CO[C@@H]1/C=C\O[C@@]2(C)Oc3c(C)c(O)c4c(c3C2=O)C(=N[C@H]2CC[C@H](O)O[C@@H]2C)C=C(NC(=O)/C(C)=C\C(=O)[C@@H]2C[C@@H]2[C@@H](O)[C@H](C)[C@@H](O)[C@H](C)[C@H](OC(C)=O)[C@@H]1C)C4=O | 9.93 min
Fc1ccc(-c2csc3ncnc(Sc4nnnn4C4CC4)c23)cc1 | 4.2 min
CN1CC(CNC(=O)OCc2ccccc2)C[C@H]2c3cccc4c3c(cn4C)CC21 (some centres not stated) | 14.3 min
Clc1ccc2ncc(-c3cccc(NC4CCNC4)n3)n2c1 (configuration not stated) | 21.8 min
Cc1ccc(S(=O)(=O)N[C@@H](Cc2ccccc2)C(=O)CCl)cc1 | 2.36 min
COc1ccc2c(c1)N(C[C@H](C)CN(C)C)c1ccccc1S2 | 2.07 min
CC(=O)Nc1ncc(S(=O)(=O)N2CCOCC2)s1 | > 30 min
COc1cccc(CNc2ccc(S(=O)(=O)Nc3cccs3)cc2)c1O | 1.6 min
S=C(NCCCc1cnc[nH]1)NCCCN(Cc1ccc(Cl)c(Cl)c1)c1ccc(Br)cn1 | > 30 min
CC(C=CC(=O)NO)=C[C@@H](C)C(=O)c1ccc(N(C)C)cc1 | 4.06 min
CC(=O)N1CCc2c(sc3c2c(=O)n(-c2ccccc2)c(=O)n3CC(=O)c2ccccc2)C1 | > 30 min
NC(=O)c1ccc(-c2nc3c([nH]2)CN(C(=O)CN2CCOCC2)CC3)cc1 | > 30 min
CC(C)(C)C1CCc2c(sc(NC(=O)c3ccncc3)c2C(N)=O)C1 (configuration not stated) | > 30 min
COC(=O)CNC(=O)c1nc(-c2ccc(Cl)cc2Cl)c2cnccn12 | 3.71 min
NC(=O)C1CCN(c2nc(-c3cccc4ccccc34)cs2)CC1 | 4.72 min
Cc1ccnc(NC(=S)N2CC[C@@H](Nc3cccc(C(F)(F)F)c3)C2)c1 | 3.5 min
COc1ccc(C(=O)Nc2nc(-c3ccccc3)cs2)cc1NS(=O)(=O)c1ccc(C)cc1 | 13 min
CCOc1ccc(CCNC(=O)c2ccc(C(=O)c3ccccc3)cc2)cc1OCC | 2.8 min
N#Cc1ccccc1Nc1ncc(-c2cccc3ccccc23)o1 | 5.8 min
Cc1cccc(-n2cnc3cc(C(=O)N4CCCC(C(F)(F)F)C4)ccc32)c1 (configuration not stated) | 1.3 min
CCOc1ccc(CCNC(=O)c2cc3c(s2)CCC3)cc1OCC | 1.6 min
CNC(=O)c1ccc(C)c(-n2c(C)cc(OCc3ccc(F)cc3F)c(Br)c2=O)c1 | > 30 min
Cc1ccc(S(=O)(=O)Nc2cc(Cl)c(Cl)cc2C(=O)Nc2nc(-c3ccccc3)cs2)cc1 | 13 min
O=C(Nc1nc(-c2ccccc2)cs1)c1ccncc1NS(=O)(=O)c1ccc2c(c1)CCC2 | 5.6 min
CCC(CC)c1cc([C@H]2CN3CC[C@H]2C[C@@H]3CNC(C)=O)nc(-c2ccncc2)n1 | 10.9 min
Clc1ccc2ncc(-c3cccc(NC4CCNCC4)n3)n2c1 | > 30 min

Structure (SMILES) | half-life
COc1cccc(CNc2ccc(S(=O)(=O)Nc3nccs3)cc2)c1N | > 30 min
Nc1nc2c(s1)C(c1ccc(F)c(F)c1)CC(=O)N2 (configuration not stated) | 29.7 min
Cc1ccc(C(=O)Nc2ccc3oc(-c4cccnc4)nc3c2)cc1[N+](=O)[O-] | 13.2 min
CCOc1ccc(OCC)c(NC(=O)C(NS(=O)(=O)c2ccc(Br)s2)c2ccccc2)c1 (configuration not stated) | 2.04 min
CN(C)C(=O)c1nc(-c2ccc(Cl)cc2Cl)c2cnccn12 | 6.29 min
Fc1cccc(F)c1Nc1nc(-c2ccncc2)nc2ccccc12 | 29 min
Cc1ccc(S(=O)(=O)Nc2ccc(C(=O)Nc3nc(-c4ccccc4)cs3)c(Cl)c2)cc1 | 23 min
CN(C)[C@@H]1CCN(c2cccc(Nc3nn4c(=O)c5ccccc5nc4s3)c2)C1 | > 30 min
Cc1ccc(S(=O)(=O)NCc2ccccc2)cc1 | 1 min
O=C(Nc1ncc(Cc2ccc(C(F)(F)F)cc2)s1)c1cnc(-c2ccccc2)[nH]1 | > 30 min
CCOc1ccc(CCNC(=O)c2ccc(C3(C(F)(F)F)N=N3)cc2)cc1OCC | 11 min
COc1cc(Nc2nc(-c3ccncc3)nc3ccccc23)ccc1NS(C)(=O)=O | 22 min
O=C(Nc1ccc(S(=O)(=O)Nc2ncc(-c3ccccc3)s2)cc1)c1ccc2ccccc2c1 | > 30 min
COc1ccccc1Nc1ccnc(N2CCN(C(=O)c3ccc(F)cc3)CC2)n1 | 11.2 min
CNc1ncc(-c2cccc3ccccc23)o1 | 9.9 min
c1ccc(Nc2nc(NCc3ccco3)c3ccccc3n2)cc1 | 2.09 min
COc1cccc(CNc2ccc(S(=O)(=O)Nc3cccnc3)cc2)c1O | 15 min
O=C(O)c1c(Sc2ccccc2)c2cc(Cl)ccc2n1Cc1ccc(Cl)cc1 | 26.6 min
COC(=O)c1ccc(O)c2ncc(N3CCN(C)CC3)cc12 | 4.16 min
O=S(=O)(Nc1nccs1)c1ccc(NCc2cccc(Cl)c2O)cc1 | 14 min
COc1ccc2[nH]c3c(c2c1)CCNC31CCN(S(=O)(=O)c2c(C)noc2C)CC1 | > 30 min
Cc1ccnc(NC(=S)N2CCCC(Nc3cccc(C(F)(F)F)c3)C2)c1 (configuration not stated) | 11 min
COc1cccc(CNCc2cccn2-c2nnc(N3CCN(c4ccccc4)CC3)s2)c1 | 2.06 min
CCN(CC)CCO[C@H]1CC[C@@]2(C)C(=CC[C@@H]3[C@@H]2CC[C@]2(C)C(=O)CC[C@@H]32)C1 | 5.67 min
Fc1cc(Nc2nc(-c3ccncc3)nc3ccccc23)ccc1-c1cccc(OC(F)F)c1 | > 30 min
COc1ccc2[nH]c(=O)c(-c3noc(-c4ccccc4)n3)cc2c1 | > 30 min

Structure (SMILES) | half-life
Cc1ccc(CNc2nc(-c3ccccc3C(F)(F)F)nc3ccccc23)s1 | 1.7 min
Cn1c(=O)c2c(-c3ccc(Cl)cc3)n(CCc3ccccc3)cc2n(C)c1=O | 1.11 min
Cc1ccc(-c2cc(C(=O)Nc3ccccn3)c3ccccc3n2)cc1 | 23.8 min
O=C(Nc1ncc(Cc2cccc(C(F)(F)F)c2)s1)c1ccc(-c2cccc([N+](=O)[O-])c2)o1 | > 30 min
Cn1cc(-c2nc(Nc3ccc(F)c(F)c3)c3ccccc3n2)cn1 | 21 min
COC(=O)CNC(=O)c1nc(-c2ccccc2OC)c2ccccn12 | 5.38 min
CCCN(C(=O)c1sc2nc3n(c(=O)c2c1C)CCCC3)c1ccccc1C | 1.36 min
CC(C)(C#N)c1ccc(N2C(=O)OCc3cnc4ccc(-c5cnc6ccccc6c5)cc4c32)cc1 | 2.84 min
O=C(c1cnc(N2CCCCC2)c2ccccc12)N1CCN(c2ccccn2)CC1 | 2.1 min
Cc1ccc(Nc2nc(C)c(NC(=O)c3ccc(C)cc3)c(Nc3ccc(C)cc3)n2)cc1 | 20.1 min
CCOc1cc2c(cc1OCC)CN(C(=O)c1cc3sccc3n1Cc1ccccc1)CC2 | 2.8 min
O=c1[nH]c(C2CCN(CC3CCCCC3)CC2)nn1Cc1ccccc1 | 25.3 min
COc1cc(C(=O)Nc2nc(-c3ccccc3)cs2)ccc1NS(=O)(=O)c1ccc(C)cc1 | 5.2 min
O=C(c1cnn(-c2cccc(F)c2)c1-n1cccc1)N1CCN(c2ccccc2F)CC1 | 1.93 min
CC(=O)c1ccc(N2CCN(C(=O)c3ccc4c(c3)CC(=O)N4)CC2)cc1 | > 30 min
Cn1c(=O)c2c(nc(Cl)n2Cc2ccc(Cl)cc2)n(C)c1=O | > 30 min
Cc1ccccc1C(=O)N1CCc2cc(-c3nc(NC(=O)c4ccc5c(c4)OCO5)sc3C)ccc21 | > 30 min
Cc1ccccc1C(=O)N1CCc2cc(-c3nc(NC(=O)Cc4ccc5c(c4)OCCO5)sc3C)ccc21 | 22 min
C[C@]12N[C@H](Cc3ccccc31)c1ccccc12 | > 30 min
NC(=O)C1CCN(c2ncc(-c3cccc(N4CCOCC4)c3)s2)CC1 | > 30 min
Cc1ccc(S(=O)(=O)Nc2ccccc2C(=O)Nc2cccc(-c3ccccc3)c2)cc1 | 3.5 min
O=C(Cc1ccc(Cl)c(Cl)c1)Nc1ccc(S(=O)(=O)Nc2nncs2)cc1 | > 30 min
O=c1c(O)c(-c2ccc(O)cc2)oc2cc(O)cc(O)c12 | 6.13 min
CC(=O)NCc1ccc(-c2csc(Nc3cccc(C)c3)n2)o1 | > 30 min
O=C(c1nc(-c2ccc(Cl)cc2Cl)c2cnccn12)N1CCOCC1 | 23.6 min
Fc1cc(Nc2nc(-c3ccncc3)nc3ccccc23)ccc1-c1cccc(C(F)(F)F)c1 | > 30 min

Structure (SMILES) | half-life
O=C1Nc2ccccc2/C1=C\c1ccc(O)c(Cl)c1 | 16 min
Cc1ccc(S(=O)(=O)Nc2ccccc2C(=O)Nc2nc(-c3ccc(Cl)cc3)cs2)cc1 | 8.85 min
COc1ncc(-c2ccc3c(Nc4cc(Oc5cc(F)cc(F)c5)cc(C(=O)O)c4)c(S(=O)(=O)NC4CC4)cnc3c2)c(OC)n1 | 9.87 min
CC(=O)c1ccc(N2CCN(S(=O)(=O)c3ccc4c(c3)CC(=O)N4)CC2)cc1 | > 30 min
O=S(=O)(Nc1nccs1)c1ccc(NCc2cc(Cl)ccc2O)cc1 | 11 min
CC(=O)c1ccc(N2CCN(c3ccc(NC(=O)c4ccc(F)cc4)cc3C(=O)O)CC2)cc1 | > 30 min
CCOc1cc(CCNC(=O)c2cc3sccc3n2Cc2ccccc2)cc(F)c1OCC | 2 min
Cc1nc(Sc2nnnn2C)c2c(-c3ccccc3)csc2n1 | 1.6 min
Cc1cc(Cl)ccc1COc1ccnn1-c1cc(C(=O)O)ccn1 | > 30 min
CCOC(=O)Nc1cc(-c2ccc(C)c(NS(C)(=O)=O)c2)nn2c(C)nnc12 | > 30 min
CC(CCc1ccc(O)cc1)NCc1ccc(Cl)cc1Cl (configuration not stated) | 1.7 min
O=C(c1cc2ccccc2[nH]1)N1CCc2c(n(Cc3cccnc3)n(CCc3ccccc3)c2=O)C1 | 1.55 min
CCc1ccccc1OC[C@@H](O)CN[C@H]1CCCc2ccccc21 | 1.8 min
c1ccc2c(Nc3ccn[nH]3)nc(-c3ccncc3)nc2c1 | 13 min
O=C(NCC1CCN(Cc2cccc(Cl)c2)CC1)Nc1ccc(F)c(Cl)c1 | 22.7 min
CC1(COc2ccc3c(c2)ncn3-c2ccc3cccc(N4CCC(N)CC4)c3n2)COC1 | > 30 min
COc1ccc(-n2nc(C3CCCN(C(=O)Cc4ccccn4)C3)[nH]c2=O)cc1 (configuration not stated) | > 30 min
O=C(NC1CC1)c1ccc(CSCc2ccccc2Cl)o1 | 1.74 min
COc1ccc(Cn2c(CCC(=O)Nc3cc(C)cc(C)c3)nc3cccnc32)cc1 | 1.47 min
COc1ccc(NC(=O)c2[nH]c(C)c(C(C)=O)c2C)cc1S(=O)(=O)Nc1ccc(C#N)cc1 | > 30 min
O=S(=O)(Nc1nccs1)c1ccc(NCc2cccc3cc[nH]c23)cc1 | > 30 min
Cc1cc(C)c(C(=O)Nc2cccc([S+](=O)([O-])Nc3ccc(Br)cc3)c2)[nH]1 | 7.7 min
CC(C)CNc1ncnc2onc(-c3ccc(Cl)cc3)c12 | 12 min
COc1cc(F)ccc1-c1nc(-c2c(C)noc2C)cc2c1cc(C)n2C | 21.6 min
